Source: US20230372395A1, “CAR CELLS TARGETING AN INSERTED LIGAND” (Massachusetts Institute of Technology, priority 2022, published 2023)

What was measured:
[1] = Toxicity of amph-FITC and FITC CAR T therapy in tumor-bearing mice; type: in vivo, C57BL/6 mice
Excerpt: (§1) C57BL/6 WT, CD45.1^+, Batf3 KO, and Rag1 KO mice (Jackson Laboratory, 6 to 8 weeks old) were inoculated with 10^6 B16F10, 10^6 MC38, 10^6 TC-1, or 3×10^6 CT-2A tumor cells subcutaneously at the flank. Once tumors grew to ˜25 mm^2 in area, mice underwent a non-myeloablative 5 Gy dose of TBI administered by a [^137Cs] gamma radiation source, 24 hr prior to adoptive transfer of 10^7 CD45.1+ CAR T cells IV via the tail vein. One day later, mice were vaccinated subcutaneously at the tail base with 10 nmol DSPE-PEG2k-FITC (Creative PEGworks) and 25 μg cyclic di-GMP (Invivogen), and vaccinated for 3 total doses, once weekly. Intratumoral injection of 10 nmol amph-FITC was administered beginning the day after the first vaccination, and continuing every 3 days.
(§2) For all studies, tumor progression was monitored by caliper measurements. Survival was evaluated over time until tumors exceeded 200 mm^2 in area, were severely ulcerated >1 week, or experienced >20% weight loss. To monitor trafficking of Fluc-expressing CAR T cells, mice were injected subcutaneously at the scruff with 150 mg/kg D-luciferin K^+ Salt (Perkin-Elmer) and imaged on a Xenogen IVIS Spectrum. Prior to imaging, C57BL/6 mice were depilated on their back to improve signal sensitivity.

B16F10 tumors [2] = assay: CAR T cell expansion and tumor homing by bioluminescence imaging; type: in vivo, C57BL/6 mice
Excerpt: as §1, §2

B16F10 tumors [3] = test system: B16F10 tumors
Method: For cellular localization studies, MC38 tumor-bearing mice were injected intratumorally with 10 nmol DSPE-PEG2k-FITC, and 24 hr later tumors were enzymatically digested at 37° C. for 30 min with 1 mg/mL collagenase D and 0.2 mg/mL DNase I in complete RPMI media before mechanical dissociation through a 70 μm cell strainer.

MSTO-211H tumors = assay: Xenograft study with human CAR T cells and intratumoral amph-FITC; type: in vivo
Method: For xenograft studies, 6- to 12-week-old NOD.Cg-Prkdc^scidIL2rg^tm1Wj1/SzJ (NSG) mice (Jackson Laboratory) were inoculated with 3×10^6 MSTO-211H cells subcutaneously at the flank. Once tumors grew to ˜25 mm^2, mice were adoptively transferred with 10^7 CAR T cells IV via the tail vein. Intratumoral injection of 10 nmol amph-FITC was administered beginning the day after adoptive transfer, and continuing every 3 days.
as §2
For quantification of human CAR T cells in the peripheral blood, spleen, and tumor, tissues were processed as described above, then stained with LIVE/DEAD Aqua, BUV496 anti-CD4 (clone SK3/Leu3a, BD Biosciences), BUV805 anti-CD8α (clone SK1, BD Biosciences), PE anti-myc tag (clone 9B11, Cell Signaling), and APC-Cy7 anti-CD45 (clone 2D1, BioLegend).

CT-2A glioblastoma cells = assay: Amph-FITC labeling of tumor cells in vitro, flow cytometry; type: cell-based, murine; conditions: 100 nM, 30 min at 37° C.
Method: (§3) Amph-FITC labeling and cytotoxicity studies: For in vitro labeling of tumor cells with amph-FITC, tumor cells were washed with 1×PBS and incubated at a cell density of 10^6 cells/mL for 30 minutes at 37° C. with DSPE-PEGx-FITC, where x=0, 1, 2, 3.4, 5, or 10 kDa (Creative PEGworks) in PBS. For cocultures, target cells were labeled simultaneously with 100 nM amph-FITC and CellTrace Violet (ThermoFisher); 20,000 target cells were seeded per well in a 96-well flat-bottom plate with CAR T cells at the indicated effector-to-target ratios. Following a 16 hr incubation, cells were stained with SYTOX red (ThermoFisher) for flow cytometry, and IFN-γ in the supernatant was quantified using a Mouse IFN gamma Uncoated ELISA Kit (Invitrogen).

CT-2A tumors [4] = assay: In vivo therapy study, tumor growth and survival; parameters: species or system C57BL/6 mice; conditions: intratumoral once every 6 days instead of every 3 days
Excerpt: as §1, §2

B16F10 tumors [5] = assay: In vivo therapy study, tumor growth and survival; parameters: species or system C57BL/6 mice; conditions: addition of amph-FITC vaccine boosting to E2-28z CAR T cells + intratumoral amph-FITC
Excerpt: as §1, §2

B16F10 melanomas = assay: Bilateral flank tumors, i.t. amph-FITC only in the 1° lesion; type: in vivo, C57BL/6 mice
Excerpt: as §1, §2

CT-2A tumors [6] = assay: as above; type: in vivo, C57BL/6 mice; conditions: FITC-CAR T cells, amph-FITC vaccination, i.t. amph-FITC right flank only
Excerpt: as §1, §2

CT-2A tumors [7] = assay: T cell infiltration of treated tumors, immunohistochemistry; type: in vivo, C57BL/6 mice; conditions: day 12, i.t. amph-FITC ± amph-FITC vaccine
Excerpt: as §1

[8] = test system: MC38 murine colon carcinoma cells; assay: Amph-FITC labeling of tumor cells in vitro, flow cytometry; type: cell-based; conditions: 100 nM, 30 min at 37° C.
Method: as §3

[9] = test system: B16F10 murine melanoma cells; assay: as above; type: cell-based; conditions: incubated 30 min at 37° C.
Method: as §3

[10] = injection of only the primary tumor

Substance: 1,2-distearoyl-sn-glycero-3-phosphoethanolamine-PEG-FITC [amph-FITC]
- body weight ([1]; CAR T cells with intratumoral amph-FITC and amph-FITC vaccination, versus untreated control): no weight loss
- inflammation of the skin surrounding treated tumors ([1]; local i.t. administration during treatment): no obvious inflammation
- impact on overall T cell expansion or accumulation at the tumor site (B16F10 tumors [2]; addition of the vaccine boost to intratumoral amph-FITC): did not have a significant impact
- CAR T cell expansion (bioluminescence) (B16F10 tumors [2]; i.t. amph-FITC with E2-28z CAR T cells): triggered CAR T cell expansion
- CAR T cell accumulation at the tumor site (B16F10 tumors [2]; intratumoral amph-FITC compared with amph-FITC vaccination alone): greater accumulation at the tumor site
- cellular distribution of FITC labeling after lymphodepletion (B16F10 tumors [3]; 5 Gy TBI 24 hours prior to amph-FITC injection): favored labeling of cancer cells in an even greater proportion
- proportion of each cell type bearing extracellularly exposed FITC (B16F10 tumors [3]; after 1 hour, cancer cells and host cells): 40-60%
- proportion of cells still bearing exposed FITC (B16F10 tumors [3]; at 24 hours): 20-40%
- cell type numerically dominant among cells surface-decorated with FITC (B16F10 tumors [3]; by 24 hours): majority of cells surface-decorated with FITC were the cancer cells
- graft vs. host disease (MSTO-211H tumors; mouse, in vivo): exacerbated GVHD
- relative expansion of CAR T cells induced by amph-FITC treatment (MSTO-211H tumors; whole mouse radiance): 13.3 fold
- association with and exposure on cell surfaces (CT-2A glioblastoma cells): associate with and be exposed on the surfaces
- therapeutic effect at reduced injection frequency (CT-2A tumors [4]): did not reduce the therapeutic effect
- increase of median survival (B16F10 tumors [5]): 3 days
- growth of the treated primary tumor (B16F10 melanomas; [10]): slowed growth
- progression of the untreated lesions (B16F10 melanomas; [10]): trend toward slowed progression
- overall survival (B16F10 melanomas; over untreated animals): substantial increases in overall survival
- overall survival (CT-2A tumors [6]): substantially improved
- progression of injected (1°) and non-injected (2°) tumors (CT-2A tumors [6]): substantially slowed progression
- T cell infiltration of treated tumors (CT-2A tumors [7]): substantial T cell infiltration throughout the tumor
- association with and exposure on cell surfaces [8]: associate with and be exposed on the surfaces
- FITC exposed on the cell surfaces (anti-FITC antibody staining) [9]: exposed on the cell surfaces
- association of amph-FITC with the cells (total FITC) [9]: dose-dependent association
